Assay results from patent US20230278972A1, “SUBSTITUTED HALOALKYL SULFONANILIDE HERBICIDES” (FMC Corporation, priority 2020, published 2023).
Where two headings read alike, the source gives them in different places.

Tests used:
Type in all cases: in vivo
[1] = tested on: wheat (Triticum aestivum); assay: Test A1 postemergence, wheat; conditions: for Plant response rating, Wheat: Postemergence
Summary of the method: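 Seeds were first planted into a blend of loam soil and sand and given a preemergence directed soil spray. In parallel, pots of the same soil were sown for postemergence application once plants reached 2 to 10 cm and the one- to two-leaf stage. Both used surfactant-containing non-phytotoxic solvent formulations.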

[2] = tested on: barnyardgrass (Echinochloa crus-galli); assay: Test A preemergence, barnyardgrass; conditions: Echinochloa crus-galli, pre-emergence, 240 h, Preemergence; for pest or weed control at 125 g/ha: 125 g ai/ha; for pest or weed control at 500 g/ha: 500 g ai/ha
Summary of the method: (§1)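 Seeds are sown in loam mixed with sand and sprayed on the soil surface right after planting for the preemergence test. Postemergence pots are sprayed once seedlings reach 2 to 10 cm at the one- to two-leaf stage. The same surfactant-containing, non-phytotoxic solvent formulation serves both.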

[3] = tested on: ragweed (common ragweed, Ambrosia artemisiifolia); assay: Test A preemergence, ragweed; conditions: Ambrosia artemisiifolia, pre-emergence, 240 h, Preemergence; for pest or weed control at 125 g/ha: 125 g ai/ha; for pest or weed control at 500 g/ha: 500 g ai/ha
Summary of the method: as §1

[4] = tested on: barnyardgrass (Echinochloa crus-galli); assay: Test A postemergence, barnyardgrass; conditions: Echinochloa crus-galli, post-emergence, 240 h, Postemergence, 0 to 100 scale (0 no effect, 100 complete control); for pest or weed control at 125 g/ha: 125 g ai/ha; for pest or weed control at 500 g/ha: 500 g ai/ha
Summary of the method: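 Whole-plant herbicidal screen in pots of loam blended with sand. Sprays used a surfactant-containing, non-phytotoxic solvent vehicle. Timing was preemergence soil-directed at planting or postemergence at the one- to two-leaf stage (2–10 cm).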

[5] = visual injury on 0 to 100 scale (0 no effect, 100 complete control), approximately 10 days, read-out: Barnyardgrass plant response rating
[6] = 0 to 100 scale (0 no effect, 100 complete control), read-out: Plant response rating, Barnyardgrass
[7] = visual injury on 0 to 100 scale (0 no effect, 100 complete control), approximately 10 days, read-out: Ragweed plant response rating
[8] = 0 to 100 scale (0 no effect, 100 complete control), read-out: Plant response rating, Ragweed
[9] = visual injury approx. 10 days, read-out: Plant response rating, Barnyardgrass
[10] = visual injury, approx. 10 days, read-out: Plant response rating, Barnyardgrass
[11] = visual injury vs untreated controls after approx. 10 days, read-out: Barnyardgrass plant response rating
[12] = read-out: Plant response rating, Barnyardgrass
[13] = visual injury, 0 to 100 scale (0 no effect, 100 complete control), approx. 10 days, read-out: Plant response rating, Barnyardgrass
[14] = visual injury, 0 to 100 scale (0 no effect, 100 complete control), approx. 10 days, read-out: Plant response rating, Ragweed
[15] = 31 g ai/ha, 0 to 100 scale (0 no effect, 100 complete control), 10 days

Row | Structure (SMILES) | pest or weed control at 125 g/ha [2, 5] [%] | pest or weed control at 500 g/ha [2, 6] [%] | pest or weed control at 125 g/ha [3, 7] [%] | pest or weed control at 500 g/ha [3, 8] [%] | pest or weed control at 125 g/ha [4, 9] [%] | pest or weed control at 500 g/ha [4, 11] [%] | further results
1 | Cc1c(C(=O)N2C[C@@H](C)O[C@H](C)C2)cc(N(COC(=O)C(C)(C)C)S(=O)(=O)C(F)(F)F)c(C)c1C (relative stereo) [Compound 373] |  |  |  |  |  |  | Wheat plant response rating ([1]; 31 g ai/ha, postemergence, 0 to 100 scale (0 no effect, 100 complete control)): 0; Plant response rating, Wheat ([1]; 125 g ai/ha, 0 to 100 scale): 70
2 | Cc1cc(Cl)c(NS(=O)(=O)C(F)(F)F)cc1C(=O)N1CCOCC1 [Compound 16, N-[2-Chloro-4-methyl-5-(4-morpholinylcarbonyl)phenyl]-1,1,1-trifluoromethanesulfonamide] | 90 | 100 | 80 | 100 | 60 |  | pest or weed control at 500 g/ha [4, 10]: 90%
3 | Cc1cc(Cl)c(NS(=O)(=O)C(F)(F)F)cc1C(=O)N1CCCCC1 [Compound 18, N-[2-Chloro-4-methyl-5-(1-piperidinylcarbonyl)phenyl]-1,1,1-trifluoromethanesulfonamide] | 100 | 100 | 0 | 30 | 0 |  | pest or weed control at 500 g/ha [4, 10]: 70%
4 | CCc1cc(-c2cc(NS(=O)(=O)C(F)(F)F)c(C)cc2C)c(=O)n(C)n1 [Compound 34, N-[5-(6-Ethyl-2,3-dihydro-2-methyl-3-oxo-4-pyridazinyl)-2,4-dimethylphenyl]-1,1,1-trifluoromethanesulfonamide] | 0 | 0 | 0 | 20 | 0 |  | pest or weed control at 500 g/ha [4, 10]: 0%
5 | Cc1cc(C)c(N(COC(=O)C(C)(C)C)S(=O)(=O)C(F)(F)F)cc1C1=NO[C@@H]2CCC[C@H]12 [Compound 100, [[2,4-Dimethyl-5-[(3aR,6aR)-3a,5,6,6a-tetrahydro-4H-cyclopent[d]isoxazol-3-yl]phenyl][(trifluoromethyl)sulfonyl]amino]methyl 2,2-dimethylpropanoate] | 70 | 90 | 20 | 80 | 80 | 90 | 
6 | Cc1cc(C)c(C2=NO[C@@H]3CCC[C@H]23)cc1NS(=O)(=O)C(F)(F)F [Compound 103, N-[2,4-Dimethyl-5-[(3aR,6aR)-3a,5,6,6a-tetrahydro-4H-cyclopent[d]isoxazol-3-yl]phenyl]-1,1,1-trifluoromethanesulfonamide] | 90 | 90 | 70 | 90 | 90 | 90 | 
7 | Cc1cc(C)c(C2=NOC3CCOCC23)cc1NS(=O)(=O)C(F)(F)F (centres unmarked) [Compound 120, N-[2,4-Dimethyl-5-(3a,6,7,7a-tetrahydro-4H-pyrano[3,4-d]isoxazol-3-yl)phenyl]-1,1,1-trifluoromethanesulfonamide] | 90 | 100 | 90 | 100 | 90 | 90 | 
8 | Cc1cc(C)c(C2=NOC3COCCC23)cc1NS(=O)(=O)C(F)(F)F (centres unmarked) [Compound 121, N-[2,4-Dimethyl-5-(3a,4,7,7a-tetrahydro-5H-pyrano[4,3-d]isoxazol-3-yl)phenyl]-1,1,1-trifluoromethanesulfonamide] | 90 | 90 | 80 | 100 | 90 | 90 | 
9 | Cc1c(NS(=O)(=O)C(F)(F)F)cc(C(=O)N(C)C)c(C)c1F [Compound 128, 3-Fluoro-N,N,2,4-tetramethyl-5-[[(trifluoromethyl)sulfonyl]amino]benzamide] | 100 | 100 | 90 | 90 | 50 | 90 | 
10 | Cc1cc(C)c(N(COC(=O)C(C)(C)C)S(=O)(=O)C(F)(F)F)cc1C1=NOC2(CCCC2)C1 [Compound 140, [[2,4-Dimethyl-5-(1-oxa-2-azaspiro[4.4]non-2-en-3-yl)phenyl][(trifluoromethyl)sulfonyl]amino]methyl 2,2-dimethylpropanoate] | 40 | 100 | 30 | 60 | 70 | 90 | 
11 | Cc1cc(C)c(N(COC(=O)C(C)(C)C)S(=O)(=O)C(F)(F)F)cc1C1=NOC2(CCCCC2)C1 [Compound 159, [[2,4-Dimethyl-5-(1-oxa-2-azaspiro[4.5]dec-2-en-3-yl)phenyl][(trifluoromethyl)sulfonyl]amino]methyl 2,2-dimethylpropanoate] | 40 | 60 | 80 | 80 |  | 80 | pest or weed control at 125 g/ha [4, 12]: 30%
12 | Cc1c(NS(=O)(=O)C(F)(F)F)cc(C(=O)N2CCOCC2)c(C)c1F [Compound 190, 1,1,1-Trifluoro-N-[3-fluoro-2,4-dimethyl-5-(4-morpholinylcarbonyl)phenyl]methanesulfonamide] |  | 100 |  | 90 |  | 90 | pest or weed control at 125 g/ha [2, 13]: 90%; pest or weed control at 125 g/ha [3, 14]: 70%; pest or weed control at 125 g/ha [4, 12]: 80%
13 | Cc1cc(C)c(C2=NOC3(CCCCC3)C2)cc1NS(=O)(=O)C(F)(F)F [Compound 197, N-[2,4-Dimethyl-5-(1-oxa-2-azaspiro[4.5]dec-2-en-3-yl)phenyl]-1,1,1-trifluoromethanesulfonamide] |  | 100 |  | 90 |  |  | pest or weed control at 125 g/ha [2, 13]: 90%; pest or weed control at 125 g/ha [3, 14]: 80%
14 | Cc1cc(C)c(C2=NOC3(CCCC3)C2)cc1NS(=O)(=O)C(F)(F)F [Compound 207, N-[2,4-Dimethyl-5-(1-oxa-2-azaspiro[4.4]non-2-en-3-yl)phenyl]-1,1,1-trifluoromethanesulfonamide] |  | 90 |  | 70 |  | 80 | pest or weed control at 125 g/ha [2, 13]: 90%; pest or weed control at 125 g/ha [3, 14]: 20%; pest or weed control at 125 g/ha [4, 12]: 60%
15 | Cc1cc(Cl)c(NS(=O)(=O)C(F)(F)F)cc1C(=O)N1CCC(F)(F)CC1 [Compound 229, N-[2-Chloro-5-[(4,4-difluoro-1-piperidinyl)carbonyl]-4-methylphenyl]-1,1,1-trifluoromethanesulfonamide] |  | 90 |  |  |  |  | pest or weed control at 125 g/ha [2, 13]: 70%; pest or weed control at 125 g/ha [3, 14]: 90%; pest or weed control at 500 g/ha [3, 7]: 100%
16 | Cc1cc(C)c(C(=O)N2CCC(F)(F)CC2)cc1NS(=O)(=O)C(F)(F)F [Compound 241, N-[5-[(4,4-Difluoro-1-piperidinyl)carbonyl]-2,4-dimethylphenyl]-1,1,1-trifluoromethanesulfonamide] |  |  |  |  |  |  | pest or weed control at 125 g/ha [2, 13]: 100%; pest or weed control at 500 g/ha [2, 5]: 100%; pest or weed control at 125 g/ha [3, 14]: 70%; pest or weed control at 500 g/ha [3, 7]: 90%; pest or weed control at 125 g/ha [4, 12]: 60%; pest or weed control at 500 g/ha [4, 9]: 90%
17 | CCc1cc(C)c(NS(=O)(=O)C(F)(F)F)cc1C1=NOC2CCCC12 (centres unmarked) [Compound 305] |  |  |  |  |  |  | Plant response rating, Wheat [1, 15]: 50; Plant response rating, Wheat ([1]; 125 g ai/ha, 0 to 100 scale): 60
18 | CCc1cc(C)c(C2=NOC3(CCCC3)C2)cc1NS(=O)(=O)C(F)(F)F [Compound 311] |  |  |  |  |  |  | Plant response rating, Wheat [1, 15]: 0; Plant response rating, Wheat ([1]; 125 g ai/ha, 0 to 100 scale): 0
19 | Cc1c(C(=O)N2CCOCC2)cc(N(COC(=O)C(C)(C)C)S(=O)(=O)C(F)(F)F)c(C)c1C [Compound 324, [[(Trifluoromethyl)sulfonyl][2,3,4-trimethyl-5-(4-morpholinylcarbonyl)phenyl]amino]methyl 2,2-dimethylpropanoate] |  |  |  |  |  |  | Plant response rating, Wheat [1, 15]: 0; Plant response rating, Wheat ([1]; 125 g ai/ha, 0 to 100 scale): 30
20 | Cc1c(NS(=O)(=O)C(F)(F)F)cc(C(=O)N2CCCCC2)c(C)c1C [Compound 326] |  |  |  |  |  |  | Plant response rating, Wheat [1, 15]: 0; Plant response rating, Wheat ([1]; 125 g ai/ha, 0 to 100 scale): 0
21 | Cc1c(NS(=O)(=O)C(F)(F)F)cc(C(=O)N2CC(C)OC(C)C2)c(C)c1C (centres unmarked) [Compound 327] |  |  |  |  |  |  | Plant response rating, Wheat [1, 15]: 0; Plant response rating, Wheat ([1]; 125 g ai/ha, 0 to 100 scale): 50
